ChEMBL document CHEMBL1150599, “Spiroidesin, a novel lipopeptide from the cyanobacterium Anabaena spiroides that inhibits cell growth of the cyanobacterium Microcystis aeruginosa” (J Nat Prod, 2002)

Columns and labels:
[1] = Inhibition of alpha-chymotrypsin
Microcystis aeruginosa = experiment: Growth inhibition of Microcystis aeruginosa NIES-88 after 5 days; type: functional, organism-based; conditions: NIES-88, 120 h

`CCCCCC(=O)N[C@H](CCc1ccc(O)cc1)C(=O)N[C@@H](CCc1ccc(O)cc1)C(=O)N[C@H](Cc1ccccc1)C(=O)O` [SPIROIDESIN] showed an IC50 [1] of 10 µM and an IC50 (Microcystis aeruginosa) of 1.6 µM.
